Results from ChEMBL document CHEMBL3861981 (J Med Chem, 2016).

How the values were obtained:
Rattus norvegicus = assay: Toxicity in rat at 30 to 300 mg/kg administered as single dose; format: organism-based; conditions: in vivo
[1] = Half life in human liver microsomes; format: ADME
[2] = Cardiotoxicity in dog assessed as effect on QRS interval at 30 to 100 mg/kg administered as single dose by electrophysiology assay; format: toxicity, organism-based, Canis lupus familiaris; conditions: in vivo
[3] = Inhibition of recombinant full length HCV genotype 5a SA13 NS3/4A protease preincubated for 30 mins followed by substrate addition measured by FRET assay; parameters: species or system Hepatitis C virus SA13
[4] = Inhibition of recombinant full length HCV genotype 6a HK-6A NS3/4A protease preincubated for 30 mins followed by substrate addition measured by FRET assay; parameters: species or system Hepatitis C virus subtype 6a
[5] = AUC in cynomolgus monkey plasma at 10 mg/kg administered via oral gavage measured up to 24 hrs post dose by LC/MS/MS analysis; format: ADME, organism-based, Macaca fascicularis; parameters: dose 10 mg/kg, time < 24 hr, route oral; conditions: plasma
[6] = Inhibition of recombinant full length HCV genotype 2b HC-J8 NS3 protease in genotype 2a replicon cells by luciferase reporter gene assay; format: cell-based, Hepatitis C virus subtype 2b; conditions: Hepatitis C virus
[7] = Cytotoxicity against human HuH7 cells assessed as decrease in cell viability
[8] = Half life in Beagle dog plasma at 1 mg/kg, iv administered as 5 mins infusion by LC/MS/MS analysis; format: ADME, organism-based, Canis lupus familiaris
[9] = Cardiotoxicity in rabbit heart assessed as change in heart rate at 10 uM perfused for 20 mins measured for 1 min by electrophysiology method relative to control; format: toxicity, tissue-based, Oryctolagus cuniculus
[10] = Cytotoxicity against human HeLa cells assessed as decrease in cell viability
Salmonella typhimurium = assay: Genotoxicity in Salmonella typhimurium in presence of S9 fraction by Ames test; format: toxicity, organism-based; conditions: salmonella enterica subsp. enterica serovar typhimurium
[11] = Clearance in cynomolgus monkey plasma at 3 mg/kg, iv administered as 5 mins infusion measured up to 24 hrs post dose by LC/MS/MS analysis; format: ADME, organism-based, Macaca fascicularis
[12] = Oral bioavailability in cynomolgus monkey plasma at 10 mg/kg administered via gavage measured up to 24 hrs post dose by LC/MS/MS analysis; format: ADME, organism-based, Macaca fascicularis; conditions: plasma
[13] = AUC in cannulated Sprague-Dawley rat plasma at 15 mg/kg administered via oral gavage measured up to 24 hrs post dose by LC/MS/MS analysis; format: ADME, organism-based; parameters: dose 15 mg/kg, time < 24 hr, route oral

half-life [1]: 1.08 h
IC50 [3]: 4.1 nM
IC50 [4]: 3.4 nM
AUC at 24 h [5]: 4.4 µM·h
EC50 [6]: 562 nM
half-life [8]: 5.1 h
clearance [11]: 9.4 mL/min/kg
bioavailability [12]: 15.4%
AUC at 24 h [13]: 21.1 µM·h
Compound: COc1cnc(O[C@@H]2C[C@@H](C(=O)N[C@]3(C(=O)NS(=O)(=O)C4CC4)C[C@H]3C3CC3)N(C(=O)[C@@H](NC(=O)O[C@H](C)C(F)(F)F)C3CCCCC3)C2)c2cc(Cl)ccc12
Activity (Rattus norvegicus): Non-Toxic
Activity [2]: Non-Toxic
CC50 [7]: 8000 to 14000 nM
Activity [9]: -11%
CC50 [10]: 8000 to 14000 nM
Activity (Salmonella typhimurium): Non-Toxic
